22 compounds from patent US10556907B2 (AbbVie Inc., priority 2015, dated 2020) can be followed below.

Structures can show the parent of a compound that is named as a salt.

Common to all, as to assay: Method 1: intracellular Ca2+ release (FLIPR, Calcium 5) in recombinant CHO-K1 cells
Common to all, as to assay type: cell-based

One test addresses T1, human S1PR5 receptor (Homo sapiens, UniProt Q9H228).
T1 construct: host or cells: CHO-K1
As to conditions: agonist potency, determined with method 1 (symbols A-D); read-out: S1P5 EC50 range. The method in brief:
(§1)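 CHO-K1 cells co-expressing the receptor, aequorin and Gq/i5 were loaded with Calcium 5 dye 1 h at 37° C, then held 45 min at RT. Serially diluted compounds added in HBSS/20 mmol/L Hepes/2.5 mmol/L probenecid/0.1% BSA pH 7.4. FLIPR Tetra fluorescence, normalized to phospho-fingolimod, fitted for EC50.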

The target in the next test is T2, human S1PR1 receptor (Homo sapiens, UniProt P21453).
T2 construct: host or cells: CHO-K1
T2 sequence (P21453 whole entry): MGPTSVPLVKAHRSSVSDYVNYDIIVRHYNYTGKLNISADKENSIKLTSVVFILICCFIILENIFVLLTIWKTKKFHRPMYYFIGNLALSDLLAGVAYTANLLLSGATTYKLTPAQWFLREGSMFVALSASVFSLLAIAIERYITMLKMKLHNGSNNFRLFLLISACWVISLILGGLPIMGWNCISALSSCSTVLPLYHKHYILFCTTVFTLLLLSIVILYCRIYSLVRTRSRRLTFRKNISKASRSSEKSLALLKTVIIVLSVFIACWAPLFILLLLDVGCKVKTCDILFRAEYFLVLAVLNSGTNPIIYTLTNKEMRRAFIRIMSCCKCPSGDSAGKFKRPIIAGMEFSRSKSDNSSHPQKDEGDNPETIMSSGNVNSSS
The settings on record: (1): determined with method 1; read-out: S1P1 EC50. The essentials:
as §1

For a further test, the target named is T3, human S1PR3 receptor (Homo sapiens, UniProt Q99500).
T3 construct: host or cells: CHO-K1
T3 sequence (Q99500 whole entry): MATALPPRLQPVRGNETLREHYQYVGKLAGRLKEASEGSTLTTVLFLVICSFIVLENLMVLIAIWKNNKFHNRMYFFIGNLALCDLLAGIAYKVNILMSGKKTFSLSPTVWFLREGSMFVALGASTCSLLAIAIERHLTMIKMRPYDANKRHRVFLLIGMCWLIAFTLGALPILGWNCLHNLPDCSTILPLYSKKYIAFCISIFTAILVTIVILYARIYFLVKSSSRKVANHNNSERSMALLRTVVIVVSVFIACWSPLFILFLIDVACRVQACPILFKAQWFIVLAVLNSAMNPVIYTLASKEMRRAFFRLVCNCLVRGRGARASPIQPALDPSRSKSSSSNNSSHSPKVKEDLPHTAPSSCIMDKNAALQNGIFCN
As to conditions: (1): determined with method 1; read-out: S1P3 EC50. The essentials:
as §1

The target of the next test is T4, human S1PR4 receptor (Homo sapiens, UniProt O95977).
T4 construct: host or cells: CHO-K1
T4 sequence (O95977 1-384): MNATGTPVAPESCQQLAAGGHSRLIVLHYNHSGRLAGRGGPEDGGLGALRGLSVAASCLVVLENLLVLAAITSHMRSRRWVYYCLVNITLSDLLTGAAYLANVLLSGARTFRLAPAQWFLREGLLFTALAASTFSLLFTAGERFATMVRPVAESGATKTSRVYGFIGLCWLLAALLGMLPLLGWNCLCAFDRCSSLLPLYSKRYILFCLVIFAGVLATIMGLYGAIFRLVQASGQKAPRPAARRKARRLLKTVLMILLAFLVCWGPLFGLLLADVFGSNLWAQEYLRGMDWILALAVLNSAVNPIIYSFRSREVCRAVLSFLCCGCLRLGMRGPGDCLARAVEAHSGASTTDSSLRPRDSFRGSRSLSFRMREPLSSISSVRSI
The settings on record: (1): determined with method 1; read-out: S1P4 EC50. The method in brief: as §1

T1 sequence (Q9H228 whole entry): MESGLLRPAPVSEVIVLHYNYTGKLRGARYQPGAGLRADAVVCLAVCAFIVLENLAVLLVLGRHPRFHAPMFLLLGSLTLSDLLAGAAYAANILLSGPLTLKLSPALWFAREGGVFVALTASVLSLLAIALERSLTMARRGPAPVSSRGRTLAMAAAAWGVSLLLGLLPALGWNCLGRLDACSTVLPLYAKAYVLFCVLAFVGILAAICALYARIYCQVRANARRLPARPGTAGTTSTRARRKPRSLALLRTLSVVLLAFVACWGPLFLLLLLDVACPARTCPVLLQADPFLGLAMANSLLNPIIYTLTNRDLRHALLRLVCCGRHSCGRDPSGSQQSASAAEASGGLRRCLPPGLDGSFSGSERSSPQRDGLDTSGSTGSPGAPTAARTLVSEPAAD

By EC50 is commonly meant the concentration needed to bring the measured effect to its halfway point. Consider `Cc1ccccc1COc1ccc(-c2ncc3c(n2)CCN(CC(C)CC(=O)O)C3)cc1` (stereo not shown) [Compound 234, 3-methyl-4-[2-[4-(o-tolylmethoxy)phenyl]-7,8-dihydro-5H-pyrido[4,3-d]pyrimidin-6-yl]butanoic acid 2,2,2-trifluoroacetic acid salt], for which the EC50 at human S1PR5 receptor was less than 10 nM; at human S1PR1 receptor, less than 1000 nM; on human S1PR3 receptor it was more than 1000 nM; on human S1PR4 receptor, more than 1000 nM.
Turning to `CC(CN1CCc2nc(-c3ccc(OCc4cc(Cl)cc(Cl)c4)cc3)ncc2C1)C(=O)O` (single isomer, unassigned) [Compound 20, 3-(2-(4-((3,5-dichlorobenzyl)oxy)phenyl)-7,8-dihydropyrido[4,3-d]pyrimidin-6(5H)-yl)-2-methylpropanoic acid], the EC50 at human S1PR5 receptor was 10 to 100 nM; on human S1PR1 receptor it was more than 1000 nM; on human S1PR3 receptor it was more than 1000 nM; on human S1PR4 receptor it was more than 1000 nM.
Turning to `O=C(O)CCN1CCc2nc(-c3ccc(OCc4ccc(C(F)F)cc4)cc3)ccc2C1` [Compound 166, 3-(2-(4-((4-difluoromethylbenzyl)oxy)phenyl)-7,8-dihydro-1,6-naphthyridin-6(5H)-yl)propanoic acid], the EC50 was less than 10 nM at human S1PR5 receptor, more than 1000 nM at human S1PR1 receptor, more than 1000 nM on human S1PR3 receptor and more than 1000 nM at human S1PR4 receptor.
Take `CCc1cccc(Cl)c1COc1ccc2c(n1)CCN(C1CC(C(=O)O)C1)C2` (stereo not shown) [Compound 118, 3-(2-((2-chloro-6-ethylbenzyl)oxy)-7,8-dihydro-1,6-naphthyridin-6(5H)-yl)cyclobutanecarboxylic acid]: the concentration for a half-maximal effect (EC50) at human S1PR5 receptor was less than 10 nM; on human S1PR1 receptor, more than 1000 nM; at human S1PR3 receptor, more than 1000 nM; on human S1PR4 receptor, more than 1000 nM.
With `CC(CC(=O)O)CN1CCc2nc(-c3ccc(OCc4cccc(Cl)c4)cc3F)ncc2C1` (stereo not shown) [Compound 232, 4-(2-(4-((3-chlorobenzyl)oxy)-2-fluorophenyl)-7,8-dihydropyrido[4,3-d]pyrimidin-6(5H)-yl)-3-methylbutanoic acid], the EC50 at human S1PR5 receptor was less than 10 nM; on human S1PR1 receptor, more than 1000 nM; at human S1PR3 receptor it was more than 1000 nM; on human S1PR4 receptor, more than 1000 nM.
As to `O=C(O)CCN1CCc2nc(-c3ccc(OCc4cccc(OC(F)(F)F)c4)cc3)ncc2C1` [Compound 82, 3-(2-(4-((3-(trifluoromethoxy)benzyl)oxy)phenyl)-7,8-dihydropyrido[4,3-d]pyrimidin-6(5H)-yl)propanoic acid], the EC50 is less than 10 nM at human S1PR5 receptor, more than 1000 nM at human S1PR1 receptor, more than 1000 nM at human S1PR3 receptor and more than 1000 nM at human S1PR4 receptor.
On to `O=C(O)CCN1CCc2nc(-c3ccc(OCc4ccccc4OC(F)F)cc3)ccc2C1` [Compound 163, 3-(2-(4-((2-difluoromethoxybenzyl)oxy)phenyl)-7,8-dihydro-1,6-naphthyridin-6(5H)-yl)propanoic acid], for which the EC50 is less than 10 nM on human S1PR5 receptor, more than 1000 nM at human S1PR1 receptor, more than 1000 nM at human S1PR3 receptor and more than 1000 nM on human S1PR4 receptor.
Regarding `CC(CN1CCc2nc(-c3ccc(OCc4ccc(Cl)c(Cl)c4)cc3)ncc2C1)C(=O)O` (stereo not shown) [Compound 14, 3-(2-(4-((3,4-dichlorobenzyl)oxy)phenyl)-7,8-dihydropyrido[4,3-d]pyrimidin-6(5H)-yl)-2-methylpropanoic acid], the EC50 on human S1PR5 receptor was less than 10 nM; on human S1PR1 receptor, more than 1000 nM; at human S1PR3 receptor, more than 1000 nM; at human S1PR4 receptor, more than 1000 nM.
For `CC(C)(C)c1ccc(COc2ccc(-c3ncc4c(n3)CCN(CCC(=O)O)C4)cc2)cc1` [Compound 87, 3-(2-(4-((4-(tert-butyl)benzyl)oxy)phenyl)-7,8-dihydropyrido[4,3-d]pyrimidin-6(5H)-yl)propanoic acid], the EC50 is 10 to 100 nM on human S1PR5 receptor, more than 1000 nM at human S1PR1 receptor, more than 1000 nM on human S1PR3 receptor and more than 1000 nM at human S1PR4 receptor.
For `O=C(O)CCN1CCc2nc(-c3ccc(OCc4ccc5c(c4)CCC5)cc3)ccc2C1` [Compound 162, 3-(2-(4-((5-indanyl)methoxy)phenyl)-7,8-dihydro-1,6-naphthyridin-6(5H)-yl)propanoic acid], the EC50 at human S1PR5 receptor was less than 10 nM; on human S1PR1 receptor, more than 1000 nM; at human S1PR3 receptor, more than 1000 nM; on human S1PR4 receptor, more than 1000 nM.
For the compound `O=C(O)CCN1CCc2nc(-c3ccc(OCc4ccccc4)cc3)c(F)cc2C1` [Compound 186, 3-(2-(4-(benzyloxy)phenyl)-3-fluoro-7,8-dihydro-1,6-naphthyridin-6(5H)-yl)propanoic acid], the EC50 on human S1PR5 receptor is less than 10 nM; on human S1PR1 receptor, more than 1000 nM; at human S1PR3 receptor it was more than 1000 nM; at human S1PR4 receptor, more than 1000 nM.
With `CC(CCN1CCc2nc(-c3ccc(OCc4ccc(Cl)cc4)cc3)c(F)cc2C1)C(=O)O` (stereo not shown) [Compound 181], the EC50 on human S1PR5 receptor was less than 10 nM; on human S1PR1 receptor, less than 1000 nM; on human S1PR3 receptor it was more than 1000 nM; at human S1PR4 receptor, more than 1000 nM.
Consider `Cc1cc(-c2ccc3c(n2)CCN(CCC(=O)O)C3)ccc1OCc1ccc(C(F)(F)F)cc1` [Compound 167, 3-(2-(3-methyl-4-((4-(trifluoromethyl)benzyl)oxy)phenyl)-7,8-dihydro-1,6-naphthyridin-6(5H)-yl)propanoic acid], for which the EC50 was less than 10 nM at human S1PR5 receptor, more than 1000 nM on human S1PR1 receptor, more than 1000 nM on human S1PR3 receptor and more than 1000 nM on human S1PR4 receptor.
For `Cc1cccc(COc2ccc(-c3ncc4c(n3)CCN(CC(C)CC(=O)O)C4)cc2)c1` (stereo not shown) [Compound 230, 3-methyl-4-(2-(4-((3-methylbenzyl)oxy)phenyl)-7,8-dihydropyrido[4,3-d]pyrimidin-6(5H)-yl)butanoic acid], the concentration for a half-maximal effect (EC50) at human S1PR5 receptor is less than 10 nM; on human S1PR1 receptor, less than 1000 nM; at human S1PR3 receptor, more than 1000 nM; on human S1PR4 receptor, more than 1000 nM.
For `CC(CC(=O)O)CN1CCc2nc(-c3ccc(OCc4cccc(F)c4)cc3)ncc2C1` (stereo not shown) [Compound 227, 4-(2-(4-((3-fluorobenzyl)oxy)phenyl)-7,8-dihydropyrido[4,3-d]pyrimidin-6(5H)-yl)-3-methylbutanoic acid], the EC50 at human S1PR5 receptor was less than 10 nM; at human S1PR1 receptor, more than 1000 nM; at human S1PR3 receptor it was more than 1000 nM; at human S1PR4 receptor it was less than 1000 nM.
`Cc1ccccc1COc1ccc(-c2ncc3c(n2)CCN(CC(C)CC(=O)O)C3)cc1C` (stereo not shown) [Compound 239]: the EC50 on human S1PR5 receptor is less than 10 nM; at human S1PR1 receptor it was more than 1000 nM; at human S1PR3 receptor it was more than 1000 nM; at human S1PR4 receptor it was more than 1000 nM.
For `O=C(O)CN1CCc2nc(-c3ccc(OCc4c(Cl)cccc4Cl)cc3)ncc2C1` [Compound 34, 2-(2-(4-((2,6-dichlorobenzyl)oxy)phenyl)-7,8-dihydropyrido[4,3-d]pyrimidin-6(5H)-yl)acetic acid], the EC50 on human S1PR5 receptor is 100 to 1000 nM; at human S1PR1 receptor it was less than 1000 nM; on human S1PR3 receptor, less than 1000 nM; at human S1PR4 receptor, less than 1000 nM.
Regarding `O=C(O)CCN1CCc2nc(-c3ccc(OCc4ccc(OC(F)F)cc4)cc3)ncc2C1` [Compound 83, 3-(2-(4-((4-(difluoromethoxy)benzyl)oxy)phenyl)-7,8-dihydropyrido[4,3-d]pyrimidin-6(5H)-yl)propanoic acid], the EC50 on human S1PR5 receptor was less than 10 nM; at human S1PR1 receptor it was more than 1000 nM; at human S1PR3 receptor it was more than 1000 nM; at human S1PR4 receptor, more than 1000 nM.
Turning to `Cc1ccccc1C#Cc1ccc2c(n1)CCN(C1CC(C(=O)O)C1)C2` (stereo not shown) [Compound 121, 3-(2-(o-tolylethynyl)-7,8-dihydro-1,6-naphthyridin-6(5H)-yl)cyclobutanecarboxylic acid], the EC50 at human S1PR5 receptor was 1000 to 10000 nM; on human S1PR1 receptor, more than 1000 nM; at human S1PR3 receptor, more than 1000 nM; on human S1PR4 receptor, more than 1000 nM.
In the case of `O=C(O)CCCN1CCc2nc(Cc3c(F)cccc3F)ncc2C1` [Compound 51, 4-(2-(2,6-difluorobenzyl)-7,8-dihydropyrido[4,3-d]pyrimidin-6(5H)-yl)butanoic acid], the EC50 at human S1PR5 receptor is 1000 to 10000 nM; on human S1PR1 receptor it was more than 1000 nM; on human S1PR3 receptor, more than 1000 nM; at human S1PR4 receptor, more than 1000 nM.
As for `O=C(O)CCN1CCc2nc(-c3ccc(OCc4c(Cl)cccc4Cl)cc3)c(F)cc2C1` [Compound 192, 3-(2-(4-((2,6-dichlorobenzyl)oxy)phenyl)-3-fluoro-7,8-dihydro-1,6-naphthyridin-6(5H)-yl)propanoic acid], the EC50 at human S1PR5 receptor was less than 10 nM; on human S1PR1 receptor, more than 1000 nM; on human S1PR3 receptor it was more than 1000 nM; at human S1PR4 receptor, more than 1000 nM.
For the compound `O=C(O)CCN1CCc2nc(-c3ccc(OCc4cccc(C(F)(F)F)c4)cc3)ccc2C1` [Compound 157, 3-(2-(4-((3-trifluoromethylbenzyl)oxy)phenyl)-7,8-dihydro-1,6-naphthyridin-6(5H)-yl)propanoic acid], the EC50 is less than 10 nM on human S1PR5 receptor, more than 1000 nM on human S1PR1 receptor, more than 1000 nM on human S1PR3 receptor and more than 1000 nM on human S1PR4 receptor.
